# Laboratory results published in patent US20240301319A1, “PERFUMING COMPOSITIONS” (FIRMNICH SA, priority 2017, published 2024).
# Counter-ions that a name gives are not always drawn.
# Assays:
# [1] = Odor threshold and odor value of perfuming compounds (Tables 4 to 10)
# [2] = Volatility of perfuming compounds (Tables 4 to 10), with top/middle/bottom note type; format: physicochemical
# Procedure, shortened: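 Volatility is expressed in μg/l in air. Top notes are 70,000 to 100 μg/l, middle notes 99 to 50 μg/l, and bottom notes 49 to 0.1 μg/l. Compounds are grouped by olfactive family: watery, green, fruity, citrus, sweet, gourmand and woody.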
# [3] = Table 6, perfuming compounds having a fruity note
# [4] = perfuming compounds having a green note
# [5] = Table 6, perfuming compounds having a fruity note, note type by volatility
# [6] = note type (Top/Middle/Bottom) by volatility, perfuming compounds having a green note
# [7] = Table 10, perfuming compounds having a woody note, note type by volatility
# [8] = Table 4, watery note, equals volatility divided by odor threshold
# [9] = Table 4, watery note, top, middle or bottom note
# [10] = Table 7, citrus note, equals volatility divided by odor threshold
# [11] = Table 7, citrus note, top, middle or bottom note
# [12] = Table 8, perfuming compounds having a sweet note
# [13] = Table 8, perfuming compounds having a sweet note, note type by volatility
# [14] = Table 9, perfuming compounds having a gourmand note, note type by volatility
compound,measurement,setting,value
CCOC(=O)C12CCCC1C1CCC2C1 (centres unmarked),Odor Threshold,[1]; [3],6.87E−05 μg/l air
same,Odor Value,[1]; [3],1.63E+06
same,Odor Threshold (μg/l air),[1]; [4],6.87E−05 μg/l air
same,Volatility,[2]; [3],111.67 μg/l air
same,Type,[2]; [5],"TOP (perfuming compounds having a volatility ranging from 70,000 to 100 μg/l in air are referred to as “top notes”)"
same,Type,[2]; [6],Top
same,Volatility (μg/l air),[2]; [4],111.67 μg/l air
"CC(=O)/C=C/C1=C(C)CCCC1(C)C [(3E)-4-(2,6,6-trimethyl-1-cyclohexen-1-yl)-3-buten-2-one]",Odor Threshold,"[1]; Table 10, woody note",3.58E−05 μg/l air
same,Type,[2]; [7],Bottom
same,Volatility,"[2]; Table 10, woody note",35.41 μg/l air
CCCCCCCCCCCC=O [DODECANAL],Odor Threshold (μg/l air),"[1]; Table 4, watery note",9.90E−04 μg/l air
same,Odor Value,[1]; [8],1.46E+05
same,Volatility (μg/l air),"[2]; Table 4, watery note",144.79 μg/l air
same,Type,[2]; [9],"TOP (perfuming compounds having a volatility ranging from 70,000 to 100 μg/l in air are referred to as “top notes”)"
O=COCCc1ccccc1 [2-PHENYLETHYL FORMATE],Odor Threshold (μg/l air),"[1]; Table 7, citrus note",8.34E−04 μg/l air
same,Odor Value,[1]; [10],6.81E+05
same,Odor Threshold (μg/l air),[1]; [4],8.34E−04 μg/l air
same,Volatility,[2]; [3],567.67 μg/l air
same,Type,[2]; [5],"TOP (perfuming compounds having a volatility ranging from 70,000 to 100 μg/l in air are referred to as “top notes”)"
same,Volatility (μg/l air),"[2]; Table 7, citrus note",567.67 μg/l air
same,Type,[2]; [11],Top
same,Type,[2]; [6],Top
same,Volatility (μg/l air),[2]; [4],567.67 μg/l air
"CC1=CCC(C(C)C)=CC1 [1-methyl-4-(2-propanyl)-1,4-cyclohexadiene]",Odor Threshold (μg/l air),"[1]; Table 7, citrus note",1.16E−01 μg/l air
same,Odor Value,[1]; [10],3.70E+04
same,Volatility (μg/l air),"[2]; Table 7, citrus note",4298.67 μg/l air
same,Type,[2]; [11],Top
CC1C(C)(C)C2=C(C(=O)CCC2)C1(C)C (centres unmarked),Odor Threshold,"[1]; Table 10, woody note",4.57E−03 μg/l air
same,Type,[2]; [7],Bottom
same,Volatility,"[2]; Table 10, woody note",29.81 μg/l air
CC1(C)CC=C(CCC=O)CC1,Odor Threshold (μg/l air),[1]; [4],2.06E−03 μg/l air
same,Type,[2]; [6],Top
same,Volatility (μg/l air),[2]; [4],417.92 μg/l air
"CCOC(=O)CC1(C)OCCO1 [ETHYL 2-METHYL-1,3-DIOXOLANE-2-ACETATE]",Odor Threshold,[1]; [12],1.62E−03 μg/l air
same,Odor Value,[1]; [12],2.95E+05
same,Odor Threshold,"[1]; Table 9, gourmand note",1.62E−03 μg/l air
same,Odor Threshold (μg/l air),[1]; [4],1.62E−03 μg/l air
same,Volatility,[2]; [3],479.20 μg/l air
same,Type,[2]; [5],"TOP (perfuming compounds having a volatility ranging from 70,000 to 100 μg/l in air are referred to as “top notes”)"
same,Volatility,[2]; [12],479.20 μg/l air
same,Type,[2]; [13],Top
same,Volatility,"[2]; Table 9, gourmand note",479.20 μg/l air
same,Type,[2]; [14],Top
same,Type,[2]; [6],Top
same,Volatility (μg/l air),[2]; [4],479.20 μg/l air
CCCCC/C(C=O)=C\c1ccccc1 [(E)-2-PENTYL-3-PHENYL-2-PROPENAL],Odor Threshold,[1]; [3],3.64E−04 μg/l air
same,Odor Value,[1]; [3],1.87E+03
same,Odor Threshold (μg/l air),"[1]; Table 7, citrus note",3.64E−04 μg/l air
same,Odor Value,[1]; [10],1.87E+03
same,Volatility,[2]; [3],0.68 μg/l air
same,Type,[2]; [5],Bottom
same,Volatility (μg/l air),"[2]; Table 7, citrus note",0.68 μg/l air
same,Type,[2]; [11],Bottom
CC1CC(C)(c2ccccc2)OC(C)O1 (centres unmarked),Odor Threshold,[1]; [3],7.82E−03 μg/l air
same,Odor Value,[1]; [3],1.46E+04
same,Volatility,[2]; [3],113.83 μg/l air
same,Type,[2]; [5],"TOP (perfuming compounds having a volatility ranging from 70,000 to 100 μg/l in air are referred to as “top notes”)"
OCCc1ccccc1 [2-PHENYLETHANOL],Odor Threshold,[1]; [12],1.02E−04 μg/l air
same,Odor Value,[1]; [12],1.56E+06
same,Odor Threshold,"[1]; Table 9, gourmand note",1.02E−04 μg/l air
same,Volatility,[2]; [3],159.75 μg/l air
same,Type,[2]; [5],"TOP (perfuming compounds having a volatility ranging from 70,000 to 100 μg/l in air are referred to as “top notes”)"
same,Volatility,[2]; [12],159.75 μg/l air
same,Type,[2]; [13],Top
same,Volatility,"[2]; Table 9, gourmand note",159.75 μg/l air
same,Type,[2]; [14],Top
CCOC(=O)/C=C/c1ccccc1 [ETHYL (E)-3-PHENYL-2-PROPENOATE],Odor Threshold,[1]; [3],2.38E−05 μg/l air
same,Odor Value,[1]; [3],8.62E+05
same,Volatility,[2]; [3],20.55 μg/l air
same,Type,[2]; [5],Bottom
"CC(C=O)Cc1ccc2c(c1)OCO2 (racemic) [(+−)-3-(1,3-BENZODIOXOL-5-YL)-2-METHYLPROPANAL]",Odor Threshold (μg/l air),"[1]; Table 4, watery note",2.23E−04 μg/l air
same,Odor Value,[1]; [8],1.60E+04
same,Volatility (μg/l air),"[2]; Table 4, watery note",3.57 μg/l air
same,Type,[2]; [9],bottom (perfuming compounds having a volatility ranging from 49 to 0.1 μg/l in air are referred to as “bottom notes”)
CCCCCCC#CC(=O)OC [METHYL 2-NONYNOATE],Odor Threshold (μg/l air),"[1]; Table 4, watery note",1.60E−03 μg/l air
same,Odor Value,[1]; [8],5.74E+04
same,Odor Threshold (μg/l air),[1]; [4],1.60E−03 μg/l air
same,Volatility (μg/l air),"[2]; Table 4, watery note",91.76 μg/l air
same,Type,[2]; [9],middle (perfuming compounds having a volatility ranging from 99 to 50 μg/l in air are referred to as “middle notes”)
same,Type,[2]; [6],Middle
same,Volatility (μg/l air),[2]; [4],91.76 μg/l air
CCCCCC/C(C=O)=C\c1ccccc1 [(2E)-2-benzylideneoctanal],Odor Threshold,[1]; [3],1.91E−03 μg/l air
same,Odor Value,[1]; [3],6.01E+02
same,Odor Threshold (μg/l air),[1]; [4],1.91E−03 μg/l air
same,Volatility,[2]; [3],1.15 μg/l air
same,Type,[2]; [5],Bottom
same,Type,[2]; [6],Bottom
same,Volatility (μg/l air),[2]; [4],1.15 μg/l air
CCCCCCCCC=O [nonanal],Odor Threshold (μg/l air),"[1]; Table 7, citrus note",8.14E−03 μg/l air
same,Odor Value,[1]; [10],3.41E+05
same,Odor Threshold (μg/l air),[1]; [4],8.14E−03 μg/l air
same,Volatility (μg/l air),"[2]; Table 7, citrus note",2777.63 μg/l air
same,Type,[2]; [11],Top
same,Type,[2]; [6],Top
same,Volatility (μg/l air),[2]; [4],2777.63 μg/l air
CCCCCC1CCCC1=O (racemic) [(+−)-2-pentylcyclopentanone],Odor Threshold,[1]; [12],1.28E−03 μg/l air
same,Odor Value,[1]; [12],4.38E+05
same,Odor Threshold,"[1]; Table 9, gourmand note",1.28E−03 μg/l air
same,Volatility,[2]; [3],560.22 μg/l air
same,Type,[2]; [5],"TOP (perfuming compounds having a volatility ranging from 70,000 to 100 μg/l in air are referred to as “top notes”)"
same,Volatility,[2]; [12],560.22 μg/l air
same,Type,[2]; [13],Top
same,Volatility,"[2]; Table 9, gourmand note",560.22 μg/l air
same,Type,[2]; [14],Top
"3-(3,3-dimethyl-2,3-dihydro-1H-inden-5-yl)propanal (A) + 3-(1,1-dimethyl-2,3-dihydro-1H-inden-4-yl)propanal (B) + 3-(1,1-dimethyl-2,3-dihydro-1H-inden-5-yl)propanal (C)",Odor Threshold (μg/l air),"[1]; Table 4, watery note",4.00E−03 μg/l air
same,Odor Value,[1]; [8],3.42E+03
same,Odor Threshold (μg/l air),"[1]; Table 7, citrus note",4.00E−03 μg/l air
same,Odor Value,[1]; [10],3.42E+03
same,Volatility (μg/l air),"[2]; Table 4, watery note",13.68 μg/l air
same,Type,[2]; [9],bottom (perfuming compounds having a volatility ranging from 49 to 0.1 μg/l in air are referred to as “bottom notes”)
same,Volatility (μg/l air),"[2]; Table 7, citrus note",13.68 μg/l air
same,Type,[2]; [11],Bottom
C=CCOC(=O)CCCCCC [ALLYL HEPTANOATE],Odor Threshold,[1]; [12],1.75E−02 μg/l air
same,Odor Value,[1]; [12],7.06E+04
same,Odor Threshold,"[1]; Table 9, gourmand note",1.75E−02 μg/l air
same,Odor Threshold (μg/l air),[1]; [4],1.75E−02 μg/l air
same,Volatility,[2]; [3],1235.24 μg/l air
same,Type,[2]; [5],"TOP (perfuming compounds having a volatility ranging from 70,000 to 100 μg/l in air are referred to as “top notes”)"
same,Volatility,[2]; [12],1235.24 μg/l air
same,Type,[2]; [13],Top
same,Volatility,"[2]; Table 9, gourmand note",1235.24 μg/l air
same,Type,[2]; [14],Top
same,Type,[2]; [6],Top
same,Volatility (μg/l air),[2]; [4],1235.24 μg/l air
"(Z)-3,7-DIMETHYL-1,6-NONADIEN-3-OL (A) + (E)-3,7-DIMETHYL-1,6-NONADIEN-3-OL (B)",Odor Threshold (μg/l air),"[1]; Table 7, citrus note",1.38E−03 μg/l air
same,Odor Value,[1]; [10],2.05E+05
same,Volatility (μg/l air),"[2]; Table 7, citrus note",283.43 μg/l air
same,Type,[2]; [11],Top
CC1(CO)CC1CC1CC2CC2(C)C1(C)C (centres unmarked),Odor Threshold,"[1]; Table 10, woody note",2.18E−06 μg/l air
same,Type,[2]; [7],Bottom
same,Volatility,"[2]; Table 10, woody note",1.74 μg/l air
CCCC(O)CCC1C(C)CCC(C)C1(C)C (racemic),Odor Threshold,"[1]; Table 10, woody note",4.05E−04 μg/l air
same,Type,[2]; [7],Bottom
same,Volatility,"[2]; Table 10, woody note",3.42 μg/l air
